Laboratory results taken from patent publication US20230382870A1, “N-AROMATIC AMIDE COMPOUNDS, PREPARATION METHODS AND USES THEREOF” (SHENZHEN EDK PHARMACEUTICAL TECHNOLOGY CO., LTD., priority 2021, published 2023).
pIC50, pKi: −log10 of the molar value.

Biological target: androgen receptor (Rattus norvegicus (Rat), UniProt P15207)
Test: Androgen receptor competition binding with radiolabeled dihydrotestosterone (hydroxyapatite separation, scintillation counting)
Conditions: androgen receptor from prostate of male SD rats; competition with radiolabeled DHT; 4 Celsius degrees, 15 hours
Procedure: Reagents and instruments: radiolabeled dihydrotestosterone […] and unlabelled dihydrotestosterone (DHT) purchased from Sigma-Aldrich (St. Louis, Mo.), scintillation solution purchased from Perkin Elmer Life Sciences (Boston, Mass.), hydroxyapatite (HAP) suspension purchased from Bio-Rad Laboratories (Hercules, Calif.), buffer (containing 10 mM Tris, 1.5 mM disodium EDTA, 0.25 M sucrose, 10 mM sodium molybdate and 1 mM PMSF, pH value adjusted to 7.4), and hydroxyapatite (HAP) solution (containing 50 mM Tris and 1 mM KH2PO4, pH value adjusted to 7.4).
In the present invention, the biological activity of the N-aromatic amide compounds with the formula (I) and/or (II) is measured accord to the following method. […] The androgen receptor (prepared from the prostate of male SD rats, 200-250 g of male Sprague-Dawley rats) and the radiolabeled dihydrotestosterone ([…], 84 Ci/mmol) are added to the buffer and well mixed for preparing reaction solution. The concentration gradients of the diluted compounds are respectively added into the reaction solution and well mixed, and the resulting mixtures are incubated at 4 Celsius degrees for 15 hours, so that the compounds and the dihydrotestosterone can fully react with the androgen receptor. Thereafter, the hydroxyapatite (HAP) suspension is added therein, well mixed, incubated for 10 minutes at 4 Celsius degrees, and centrifuged for removing the supernatant containing free dihydrotestosterone. The dihydrotestosterone bound to the androgen receptor is adsorbed in the hydroxyapatite and thus retained in the precipitated particles, thereby separating the bound and unbound radiolabelled ligands. A scintillation solution is added to the precipitate, well mixed, and detected for the radioactivity intensity using a WALLACE MicroBeta Trilux Scintillator (Perkin Elmer).The detected radioactivity intensity values for the concentration gradients are processed to obtain values of ICso and K. The specific biological activity (the competition results between androgen receptor ligand and radioligand) is shown in the following table: […]

Sequence of androgen receptor (P15207 whole entry S389L): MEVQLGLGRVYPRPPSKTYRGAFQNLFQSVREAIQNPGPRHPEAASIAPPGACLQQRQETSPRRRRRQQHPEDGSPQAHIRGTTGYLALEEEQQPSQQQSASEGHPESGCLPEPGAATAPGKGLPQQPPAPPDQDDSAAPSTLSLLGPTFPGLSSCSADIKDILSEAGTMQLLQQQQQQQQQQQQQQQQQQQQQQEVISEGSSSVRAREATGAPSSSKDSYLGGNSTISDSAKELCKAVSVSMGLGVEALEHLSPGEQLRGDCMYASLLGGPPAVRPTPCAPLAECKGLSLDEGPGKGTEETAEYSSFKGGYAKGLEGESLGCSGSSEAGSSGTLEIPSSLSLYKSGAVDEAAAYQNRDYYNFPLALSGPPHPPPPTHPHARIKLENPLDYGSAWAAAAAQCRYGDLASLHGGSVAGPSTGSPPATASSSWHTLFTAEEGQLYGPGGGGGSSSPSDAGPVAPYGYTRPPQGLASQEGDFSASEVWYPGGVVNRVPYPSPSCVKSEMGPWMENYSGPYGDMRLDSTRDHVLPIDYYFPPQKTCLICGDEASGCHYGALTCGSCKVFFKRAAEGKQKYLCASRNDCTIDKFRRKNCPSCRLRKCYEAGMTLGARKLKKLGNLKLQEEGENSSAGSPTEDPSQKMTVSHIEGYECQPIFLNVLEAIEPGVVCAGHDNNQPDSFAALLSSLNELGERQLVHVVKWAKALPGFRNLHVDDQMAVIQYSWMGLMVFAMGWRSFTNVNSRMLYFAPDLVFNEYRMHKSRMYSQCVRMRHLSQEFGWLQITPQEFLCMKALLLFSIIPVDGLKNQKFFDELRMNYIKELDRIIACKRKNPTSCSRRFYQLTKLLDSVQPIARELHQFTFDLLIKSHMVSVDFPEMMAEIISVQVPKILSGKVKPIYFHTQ

| SMILES | pIC50 | pKi |
| --- | --- | --- |
| CC(C)(C(=O)Nc1ccc(C#N)c(C(F)(F)F)c1)n1ccc2c(F)cc(-c3ccc(F)cc3)cc21 [Example 1, N-(4-cyano-3-trifluoromethyl)-phenyl-2-[4-fluoro-6-(4-fluorophenyl)-1H-indolyl-1-yl]-2-methylpropanamide] | 6.26 |  |
| CC(C)(C(=O)Nc1ccc(C#N)c(C(F)(F)F)c1)n1ccc2cc(F)c(-c3ccccc3)cc21 [Example 2, N-(4-cyano-3-trifluoromethyl) phenyl-2-(5-fluoro-6-phenyl-1H-indolyl-1-yl)-2-methylpropanamide] | 6.47 |  |
| CC(C)(C(=O)Nc1ccc(C#N)c(C(F)(F)F)c1)n1ccc2cc(F)ccc21 [Example 3, N-(4-cyano-3-trifluoromethyl)-phenyl-2-(5-fluoro-1H-indolyl-1-yl)-2-methylpropanamide] | 6.67 | 6.44 |
| CC(C)(C(=O)Nc1ccc(C#N)c(C(F)(F)F)c1)n1ccc2c(F)cccc21 [Example 4, N-(4-cyano-3-trifluoromethyl)-phenyl-2-(4-fluoro-1H-indolyl-1-yl)-2-methylpropanamide] | 6.61 | 6.31 |
| CC(C)(C(=O)Nc1ccc(C#N)c(C(F)(F)F)c1)n1ccc2ccc(F)cc21 [Example 5, N-(4-cyano-3-trifluoromethyl)-phenyl-2-(6-fluoro-1H-indolyl-1-yl)-2-methylpropanamide] | 6.64 | 6.50 |
| CC(C)(C(=O)Nc1ccc(C#N)c(C(F)(F)F)c1)n1ccc2cc([N+](=O)[O-])ccc21 [Example 6, N-(4-cyano-3-trifluoromethyl)-phenyl-2-(5-nitro-1H-indolyl-1-yl)-2-methylpropanamide] | 6.58 | 6.38 |
| CC(C)(C(=O)Nc1ccc(C#N)c(C(F)(F)F)c1)n1ccc2cc(C(F)(F)F)ccc21 [Example 8, N-(4-cyano-3-trifluoromethyl)-phenyl-2-(5-trifluoromethyl-1H-indolyl-1-yl)-2-methylpropanamide] | 6.45 | 6.36 |
| CC(C)(C(=O)Nc1ccc(C#N)c(C(F)(F)F)c1)n1ccc2cc(C#N)ccc21 [Example 9, N-(4-cyano-3-trifluoromethyl)-phenyl-2-(5-cyano-1H-indolyl-1-yl)-2-methylpropanamide] | 6.63 | 6.35 |
| CC(C)(C(=O)Nc1ccc(C#N)c(C(F)(F)F)c1)N1CCc2cc(F)ccc21 [Example 10, N-(4-cyano-3-trifluoromethyl)-phenyl-2-(5-fluoro-1H-2,3-dihydroindolyl-1-yl)-2-methylpropanamide] | 6.36 | 6.41 |
| CC(C)(C(=O)Nc1ccc(C#N)c(C(F)(F)F)c1)N1CCc2cc(F)c(F)cc21 [Example 11, N-(4-cyano-3-trifluoromethyl)-phenyl-2-(5,6-difluoro-1H-2,3-dihydroindolyl-1-yl)-2-methylpropanamide] | 6.30 | 6.30 |
| CC(C)(C(=O)Nc1ccc(C#N)c(Cl)c1)n1ccc2cc(F)ccc21 [Example 12, N-(3-chloro-4-cyano) phenyl-2-(5-fluoro-1H-indolyl-1-yl)-2-methylpropanamide] | 6.69 | 6.45 |
| CC(C)(C(=O)Nc1ccc(C#N)c(C(F)(F)F)c1)n1cc(-c2ccc(F)cc2)c(F)n1 [Example 13, N-(4-cyano-3-trifluoromethyl)-phenyl-2-[3-fluoro-4-(4-fluorophenyl)-1H-pyrazolyl-1-yl]-2-methylpropanamide] | 6.38 |  |
| CC(C)(C(=O)Nc1ccc(C#N)c(C(F)(F)F)c1)n1cc(-c2ccc(F)cc2)cn1 [Example 14, N-(4-cyano-3-trifluoromethyl)-phenyl-2-[4-(4-fluorophenyl)-1H-pyrazolyl-1-yl]-2-methylpropanamide] | 6.12 |  |
| CC(C)(C(=O)Nc1ccc(C#N)c(C(F)(F)F)c1)n1cc(F)cn1 [Example 15, N-(4-cyano-3-trifluoromethyl)-phenyl-2-(4-fluoro-1H-pyrazolyl-1-yl)-2-methylpropanamide] | 6.90 |  |
| CC(C)(C(=O)Nc1ccc(C#N)c(C(F)(F)F)c1)n1ccc(F)n1 [Example 16, N-(4-cyano-3-trifluoromethyl)-phenyl-2-(3-fluoro-1H-pyrazolyl-1-yl)-2-methylpropanamide] | 6.83 |  |
| CC(C)(C(=O)Nc1ccc(C#N)c(C(F)(F)F)c1)n1cc(Cl)cn1 [Example 17, N-(4-cyano-3-trifluoromethyl)-phenyl-2-(4-chloro-1H-pyrazolyl-1-yl)-2-methylpropanamide] | 6.94 |  |
| CC(C)(C(=O)Nc1cnc(C#N)c(C(F)(F)F)c1)n1cc(F)cn1 [Example 22] | 7.14 |  |
| N#Cc1ccc(NC(=O)C2(n3cc(F)cn3)CCC2)cc1C(F)(F)F [Example 23, N-(4-cyano-3-trifluoromethyl)-phenyl-1-(4-fluoro-1H-pyrazolyl-1-yl)-cyclobutane-formamide] | 6.94 |  |
| N#Cc1ncc(NC(=O)C2(n3cc(F)cn3)CCC2)cc1C(F)(F)F [Example 24, N-(6-cyano-5-trifluoromethyl-pyridyl-3-yl)-1-(4-fluoro-1H-pyrazolyl-1-yl) -cyclobutane-formamide] | 7.17 |  |
| CC(C)(C(=O)Nc1ccc(C#N)c(C(F)(F)F)c1)n1cc(Br)c(F)n1 [Example 25, 2-(4-bromo-3-fluoro-1H-pyrazolyl-1-yl)-N-(4-cyano-3-trifluoromethyl)-phenyl-2-methylpropanamide] | 7.04 |  |
| CC(C)(C(=O)Nc1ccc(C#N)c(C(F)(F)F)c1)n1cc(F)c(F)n1 [Example 26, 2-(3,4-difluoro-1H-pyrazolyl-1-yl)-N-(4-cyano-3-trifluoromethyl)-phenyl-2-methylpropanamide] | 7.12 |  |
| CC(C)(C(=O)Nc1ccc(C#N)c(C(F)(F)F)c1)n1cc(Cl)c(F)n1 [Example 29, 2-(3-fluoro-4-chloro-1H-pyrazolyl-1-yl)-N-(4-cyano-3-trifluoromethyl)-phenyl-2-methylpropanamide] | 6.98 |  |
| CC(C)(C(=O)Nc1ccc(C#N)c(C(F)(F)F)c1)n1cc(C#N)c(Cl)n1 [Example 30, 2-(3-chloro-4-cyano-1H-pyrazolyl-1-yl)-N-(4-cyano-3-trifluoromethyl)-phenyl-2-methylpropanamide] | 7.06 |  |
